Common to all, as to type: cell-based
Test [1] has as its system cervical (HeLa) cancer cell line. The experiment in a line: Sulforhodamine B (SRB) cell viability assay, HeLa. As to conditions: 72 h, read-out: IC50 HeLa. The text has this:
(§1) The cancer cell lines used for this study were ovarian cancer (A2780), cervical cancer (HeLa) and colorectal cancer (HT29) as well as normal cardiomyocyte (H9C2) and liver (WRL-68) cell lines. All cell lines were purchased from American Type Culture Collections except A2780, which were purchased from the European Collection of Authenticated Cell Cultures. These cells were subcultured in Dulbecco’s Modified Eagle’s medium (Sigma-Aldrich, St. Louis, MO, USA) and supplemented with 10% fetal bovine serum (Sigma, USA), 1% penicillin–streptomycin (Sigma, USA), 1% amphotericin B (Sigma, USA) and 1% gentamicin (Sigma, USA). The cells were seeded in each well of 96 well plates and incubated in a humidified incubator at 37 °C and 5% carbon dioxide in air for 24 h. Each cell line was then treated with eurycomanone and eurycomalactone at five different concentrations (0.08, 0.4, 2, 10 and 50 µM) in triplicate. Cisplatin and methotrexate (Sigma, USA), known chemo-drugs, were also treated on these cell lines at five different concentrations (0.08, 0.4, 2, 10, 50 µM for cisplatin, 0.0008, 0.004, 0.02, 0.1, 0.5 µM for methotrexate) for the comparative studies. The treated cells were then incubated in the same incubator with the mentioned conditions for 72 h. The experiment was repeated at least three times.
(§2) Sulforhodamine B (SRB) assay had been performed after the treated cells were incubated for 72 h. Briefly, 50 μL of ice cold tricholoroacetic acid (TCA) was added to each well and allowed to stand for 30 min at room temperature, followed by rinsing each well with tap water. Then, 100 μL of 0.4% SRB was added to each well to stain living cells for 30 min followed by a rinse with 1% acetic acid. Finally, 100 μL of Tris buffer was added to each well and the optical density (OD) of the treated and nontreated cells were read at 492 nm with a Magellan V.4 microtiter plate reader (Tecan, Salzburg, Austria). The percentage of cell viability was calculated based on (OD492nm of the treated cells/OD492nm of the nontreated cells) × 100. The IC50 values were determined from the dose–response curve of percentage of cell viability versus the concentration of the compounds (μM). Cells viability assay for each treatment was performed in triplicate in at least three independent experiments, and the IC50 values are given as the mean ± SEM.

Test [2] deals with liver (WRL-68) normal cell line. As to the kind of experiment: Sulforhodamine B (SRB) cell viability assay, WRL-68. As to conditions: read-out: IC50 WRL-68.
Text: as §1, §2

For test [3], the system named is cardiomyocyte (H9C2) normal cell line. As to the kind of experiment: Sulforhodamine B (SRB) cell viability assay, H9C2. As to conditions: read-out: IC50 H9C2.
Text: as §1, §2

Test [4] concerns ovarian (A2780) cancer cell line. The experiment in a line: Sulforhodamine B (SRB) cell viability assay, A2780. Particulars: read-out: IC50 A2780.
Text: as §1
as §2, with “Briefly,” for “Sulforhodamine B (SRB) assay had been performed after the treated cells were incubated for 72 h. Briefly,”

In test [5] the test system is colorectal (HT29) cancer cell line. As to the kind of experiment: Sulforhodamine B (SRB) cell viability assay, HT-29. Particulars: read-out: IC50 HT-29.
Text: as §1, §2

The test system of test [6] is ovarian (A2780), cervical (HeLa) and colorectal (HT29) cancer cells. The experiment in a line: SRB assay, range over the three cancer cell lines. As to conditions: 72 h, read-out: range of IC50 values in cancer cell lines.
Text: as §1
as §2, with “Briefly,” for “Sulforhodamine B (SRB) assay had been performed after the treated cells were incubated for 72 h. Briefly,”, “Cells viability assay for each treatment was performed in triplicate in at least three independent experiments, and the IC50 values are given as the mean ± SEM.” left out

The subject of the next test is HT-29 cells. As to the kind of experiment: Apoptotic Hoechst 33342 assay, HT-29. Here is the method: (§3) A2780, HT-29 and HeLa cancer cell lines were chosen for evaluating the apoptotic effects of eurycomanone and eurycomalactone. The morphological changes of cells undergoing apoptosis were visualised under a fluoresecence microscope after performing the Hoechst 33342 assay. Briefly, 10 × 10^4 cells were seeded for 500 µL/well of four Labtek® Chamber Slides (Thermo Fisher Scientific, Waltham, MA, USA) and incubated in 5% carbon dioxide in air for 24 h for the cells’ attachment. The cells were treated with concentrations of IC50/5, IC50 and IC50 × 5 values of eurycomanone and eurycomalactone in different wells and further incubated for 6, 24 and 48 h, respectively. Nontreated cells were also included in the experimental design, which acted as a negative control in this study. Following this, the media from each well were discarded and cells were fixed with 4% (w/v) paraformaldehyde for 30 min. The cells were then washed with cold phosphate buffer solution (PBS) prior to staining using Hoechst 33342, according to the method of [26]. Quantitative assessment of apoptotic cells were determined by counting apoptotic nuclei from five randomly chosen areas corroborating visual impression based on the morphology shown in Figure 3 and Figure 4. The apoptotic index (number of apoptotic nuclei per total nuclei × 100) was expressed as a percentage of the mean ± S.E.M and analysed using ANOVA followed by Tukey’s multiple comparison test.

In a further test the test system is A2780 cells. As to the kind of experiment: Apoptotic Hoechst 33342 assay, A2780. The protocol:
as §3

The next test relates to HeLa cells. The experiment in a line: Apoptotic Hoechst 33342 assay, HeLa. Here is the method:
as §3

Setting [7] is: SRB, 72 h, normal cell line, mean ± SEM (n = 9).

Read-outs that look alike come from different tables or passages of the source.

Turning to `N.N.[Cl][Pt][Cl]` [Cisplatin, reference compound], the IC50 (usually the concentration at which inhibition is half-maximal) worked out at 1540 ± 120 nM in [1] (SRB, mean ± SEM (n = 9)); 1130 ± 98 nM in [2] (setting [7]); 14.1 ± 1.14 µM in [3] (setting [7]); 1770 ± 18 nM in test [4] (SRB, 72 h, mean ± SEM (n = 9)); 1380 ± 37 nM in test [5] (SRB, 72 h, mean ± SEM (n = 9)).

`CC1=CC(=O)[C@@H](O)[C@@]2(C)[C@H]1CC(=O)[C@@]1(C)[C@H]3C(=O)O[C@H]([C@@H]3C)[C@H](O)[C@@H]12` [Eurycomalactone]: the IC50 in [6] is 1600 to 2460 nM; in [1] (Homo sapiens, HeLa) it was 1600 ± 120 nM; in test [2] (Homo sapiens, WRL68, 72 h) it was 2710 ± 42 nM; in [3] (Rattus norvegicus, H9c2, 72 h) it was 7 ± 0.43 µM; in test [4] (Homo sapiens, A2780, 72 h), 2460 ± 81 nM; in test [5] (Homo sapiens, HT-29, 72 h), 2210 ± 49 nM. The Apoptotic index with HT-29 cells (HT-29, IC50, 6 h) is 4.51 ± 0.23 ^b/x %; in the test on HT-29 cells (HT-29, IC50, 24 h), 12.41 ± 0.77 ^ab/xy %; in the test on HT-29 cells (HT-29, IC50, 48 h) it was 14.28 ± 0.84 ^ab/xz,yz %; in the test on HT-29 cells (HT-29, IC50/5, 6 h) it was 3.79 ± 0.45 ^a/x %; with HT-29 cells (HT-29, IC50/5, 24 h), 7.71 ± 0.51 ^a/xy %; in the test on HT-29 cells (HT-29, IC50/5, 48 h) it was 8.86 ± 0.68 ^a/xz %. For the same molecule, the Apoptotic index in the test with HT-29 cells (HT-29, IC50 × 5, 6 h) is recorded as 6.52 ± 1.22 ^ac,bc/x %; in the test with HT-29 cells (HT-29, IC50 × 5, 24 h) it was 20.21 ± 1.52 ^ac,bc/xy %; with HT-29 cells (HT-29, IC50 × 5, 48 h), 100.00 ± 0.00 ^ac,bc/xz,yz %; in the test on A2780 cells (A2780, IC50, 6 h), 4.26 ± 0.64 ^b/x %; in the test on A2780 cells (A2780, IC50, 24 h), 6.29 ± 0.21 ^ab/y %; with A2780 cells (A2780, IC50, 48 h), 7.93 ± 2.28 ^b/xz %. In addition, the Apoptotic index in the test on A2780 cells (A2780, IC50/5, 6 h) was 3.84 ± 0.10 ^a/x %; with A2780 cells (A2780, IC50/5, 24 h) it was 4.12 ± 0.16 ^a/y %; in the test on A2780 cells (A2780, IC50/5, 48 h), 5.16 ± 0.065 ^a/xz,yz %; with A2780 cells (A2780, IC50 × 5, 6 h) it was 15.81 ± 0.38 ^ac,bc/x %; in the test with A2780 cells (A2780, IC50 × 5, 24 h), “Cells died and completely detached ^ac,bc/xy”; with A2780 cells (A2780, IC50 × 5, 48 h) it was “Cells died and completely detached ^ac,bc/xz”. Also, the Apoptotic index with HeLa cells (IC50, 6 h) is 17.67 ± 0.77 ^ab/x %; in the test on HeLa cells (IC50, 24 h), 32.00 ± 1.57 ^ab/xy %; with HeLa cells (IC50, 48 h) it was 36.71 ± 1.19 ^ab/xz,yz %; with HeLa cells (IC50/5, 6 h) it was 5.45 ± 0.23 ^a/x %; with HeLa cells (IC50/5, 24 h), 8.94 ± 0.21 ^a/xy %; in the test on HeLa cells (IC50/5, 48 h) it was 14.78 ± 0.12 ^a/xz,yz %. Further, the Apoptotic index in the test with HeLa cells (IC50 × 5, 6 h) is on record as 31.87 ± 2.19 ^ac,bc/x %; in the test with HeLa cells (IC50 × 5, 24 h), 62.20 ± 1.35 ^ac,bc/xy %; in the test with HeLa cells (IC50 × 5, 48 h) it was 100.00 ± 0.00 ^ac,bc/xz,yz %.

Turning to `CN(Cc1cnc2nc(N)nc(N)c2n1)c1ccc(C(=O)N[C@@H](CCC(=O)O)C(=O)O)cc1` [Methotrexate, reference compound], the IC50 in test [6] (range over A2780, HeLa, HT29, SRB) was 16 to 94 nM; in [1] (Homo sapiens, HeLa, SRB, mean ± SEM (n = 9)), 94 ± 4.3 nM; in test [2] (Homo sapiens, WRL68, SRB, 72 h, normal cell line, mean ± SEM (n = 9)) it was 15 ± 0.41 nM; in test [3] (Rattus norvegicus, H9c2, SRB, 72 h, normal cell line, mean ± SEM (n = 9)), more than 50 µM; in test [4] (Homo sapiens, A2780, SRB, 72 h, mean ± SEM (n = 9)), 16 ± 0.5 nM; in test [5] (Homo sapiens, HT-29, SRB, 72 h, mean ± SEM (n = 9)), 59 ± 1 nM.

(Values after PMC10421158, “In Vitro and In Silico Analysis of the Anticancer Effects of Eurycomanone and Eurycomalactone from Eurycoma longifolia” (Plants, 2023).)
